Measured values: patent publication US20260014147A1, “STAT6 DEGRADERS” (Gilead Sciences, Inc., priority 2024, published 2026)

Columns and labels:
[1] = target: T1, STAT6 (endogenous, HiBiT-tagged) in HeLa LgBiT clone 4.14 cells (Homo sapiens, UniProt P42226); test: STAT6 Degrader Assay (HiBiT based, HeLa LgBiT clone 4.14 cells, luminescence, DC50); assay type: cell-based; details: geometric mean; for Emax: Emax provided for test compounds with <80% Emax (and 2c15), read-out: STAT6 degradation Emax; for DC50: DC50 provided for test compounds with >80% Emax, read-out: STAT6 degradation DC50
T1 construct: These cells express endogenous STAT6; host or cells: HeLa LgBiT clone 4.14
T1 sequence (P42226 1-847): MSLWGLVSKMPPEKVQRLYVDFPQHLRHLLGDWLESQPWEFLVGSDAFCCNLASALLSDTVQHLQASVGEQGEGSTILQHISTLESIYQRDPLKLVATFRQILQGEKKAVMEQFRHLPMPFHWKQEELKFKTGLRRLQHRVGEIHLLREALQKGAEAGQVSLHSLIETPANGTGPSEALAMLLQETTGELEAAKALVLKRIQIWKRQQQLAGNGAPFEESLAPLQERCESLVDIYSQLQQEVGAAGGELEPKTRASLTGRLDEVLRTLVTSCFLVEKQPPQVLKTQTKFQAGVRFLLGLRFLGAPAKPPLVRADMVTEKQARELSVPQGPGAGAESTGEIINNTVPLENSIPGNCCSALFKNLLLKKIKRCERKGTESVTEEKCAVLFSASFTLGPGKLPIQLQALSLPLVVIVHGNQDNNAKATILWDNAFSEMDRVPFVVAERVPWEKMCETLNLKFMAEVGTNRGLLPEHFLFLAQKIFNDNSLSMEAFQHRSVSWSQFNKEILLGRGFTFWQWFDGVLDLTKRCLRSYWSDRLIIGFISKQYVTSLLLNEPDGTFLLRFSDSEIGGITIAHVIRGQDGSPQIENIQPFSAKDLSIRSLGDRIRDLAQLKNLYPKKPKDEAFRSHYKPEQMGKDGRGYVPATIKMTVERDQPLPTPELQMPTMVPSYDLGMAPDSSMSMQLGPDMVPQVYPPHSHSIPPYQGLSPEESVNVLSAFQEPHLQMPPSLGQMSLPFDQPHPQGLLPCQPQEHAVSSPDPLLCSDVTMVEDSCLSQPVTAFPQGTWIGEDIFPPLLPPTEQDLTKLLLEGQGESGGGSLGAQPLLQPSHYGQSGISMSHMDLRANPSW
Outline: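 Remaining STAT6 is read as NanoBiT luminescence after 0.5 h with Nano-Glo, in HeLa LgBiT clone 4.14 cells expressing endogenous HiBiT-tagged STAT6, following 4-24 h compound incubation at 37 °C. Full degradation is set by 50 µM terfenadine, which kills the cells; degradation plotted against log compound concentration.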

[2] = target: T2, human STAT6 (truncated, aa122-658, with N-terminal His-tag) (Homo sapiens, UniProt P42226); test: Surface Plasmon Resonance (SPR) assay: binding of compounds to immobilized human STAT6; details: immobilized human STAT6 (aa122-658), 25° C.; geometric mean
T2 construct: Human STAT6 (truncated, aa122-658, with N-terminal His-tag, expressed in insect cells); His-tag (N); made in house; host or cells: insect cells
T2 sequence (P42226 122-658): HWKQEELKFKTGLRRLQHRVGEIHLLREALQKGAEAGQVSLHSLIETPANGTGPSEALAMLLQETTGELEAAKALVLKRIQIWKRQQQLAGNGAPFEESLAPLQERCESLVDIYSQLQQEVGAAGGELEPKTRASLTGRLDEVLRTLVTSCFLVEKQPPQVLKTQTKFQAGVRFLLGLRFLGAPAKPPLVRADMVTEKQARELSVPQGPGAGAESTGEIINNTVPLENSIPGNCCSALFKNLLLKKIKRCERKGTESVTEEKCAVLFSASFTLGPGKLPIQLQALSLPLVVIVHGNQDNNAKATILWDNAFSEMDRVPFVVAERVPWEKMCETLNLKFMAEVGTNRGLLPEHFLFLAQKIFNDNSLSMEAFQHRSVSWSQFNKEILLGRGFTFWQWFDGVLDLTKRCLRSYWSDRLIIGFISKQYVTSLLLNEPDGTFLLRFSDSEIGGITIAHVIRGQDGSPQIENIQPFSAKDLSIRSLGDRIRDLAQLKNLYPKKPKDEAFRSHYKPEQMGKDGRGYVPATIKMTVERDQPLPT
Method: SPR was used to confirm and quantify binding of compounds to human STAT6. Biacore instruments from the 8K-series (Cytiva) were used, and measurements were performed at 25° C. Human STAT6 (truncated, aa122-658, with N-terminal His-tag, expressed in insect cells) was immobilized in the active flow cells on a CM5 chip using amine-coupling (default settings) at 10 μg/ml in 10 mM acetate buffer pH 5.5, at a contact time of 120-420 sec. and a flow rate of […]. Reference flow cells were deactivated using blank immobilization. PBS-P+ (Cytiva) supplemented with 2% DMSO was used as running buffer, and solvent correction was applied. Compounds were tested by multi-cycle kinetics injections using a contact time of 60 sec., dissociation time of up to 300 sec., and a flow rate of […].
Solvent-corrected, reference-subtracted and blank-corrected data was processed and binding isotherms were fitted according to a single report point from each sensorgram (Standard: Late binding (5 sec. before injection end); alternative: Earlier report point according to binding profile). Data fitting was done both with unfixed Rmax and with Rmax fixed to the theoretical value* assuming 1:1 binding to allow processing of data from both weak and strong binders as well as to evaluate binding stoichiometry.
Positive controls were run at the beginning, during, and at the end of the screen to evaluate surface activity. Generally surface activity was only affected to a minor degree, and no corrections were applied.
*Equation for calculation of the theoretical Rmax (Theoretical Rmax=(MW Analyte/MW Ligand) x immobilization level).
The sensorgrams for Examples 2a1, 2t1, 2m1, and 2a2 are shown below (where RU is plotted vs. time in seconds; dotted lines/points were excluded from the analysis due to effects from non-specific binding).

[3] = system: Eotaxin-3 (CCL26) release in human whole blood stimulated with IL-4; test: Human Whole Blood Eotaxin-3 Assay (IL-4 stimulated, inhibition of eotaxin-3 release); assay type: cell-based; details: Homo sapiens, EC50 provided for test compounds with >80% Emax, geometric mean across assay runs and batches
Outline: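 Lithium-heparin human whole blood preincubated 2 h at 37 °C with compounds (4-fold serial dilution, triplicate, 0.5% DMSO final), then stimulated with 400 pM IL-4 for 48 h. Eotaxin-3 (CCL26) in supernatant quantified by MSD immunoassay.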

Structure (SMILES)	Emax [1]	Kd [2]	DC50 [1]	EC50 [3]
Cn1c(CN2CCC(c3ccc(C(=O)N4CCN(C(=O)CN5CCC(c6ccc(NC7CCC(=O)NC7=O)cc6F)CC5)CC4)cc3)CC2)cc2c(-c3ccc4[nH]ncc4c3)ccnc21 (stereo not shown) [Example 2a1, 3-((4-(1-(2-(4-(4-(1-((4-(1H-indazol-5-yl)-1-methyl-1H-pyrrolo[2,3-b]pyridin-2-yl)methyl)-piperidin-4-yl)benzoyl)piperazin-1-yl)-2-oxoethyl)piperidin-4-yl)-3-fluorophenyl)amino)piperidine-2,6-dione]	–	224 nM	4.9 nM	–
Cn1c(CN2CCC(c3ccc(C(=O)N4CCC(CN5CCN(c6ccc(NC7CCC(=O)NC7=O)cc6F)CC5)CC4)cc3)CC2)cc2c(-c3ccc(N)nc3C#N)ccnc21 (stereo not shown) [Example 2c8, 6-amino-3-(2-((4-(4-(4-((4-(4-((2,6-dioxopiperidin-3-yl)amino)-2-fluorophenyl)piperazin-1-yl)-methyl)piperidine-1-carbonyl)phenyl)piperidin-1-yl)methyl)-1-methyl-1H-pyrrolo[2,3-b]pyridin-4-yl)-picolinonitrile]	< 20%	40 to 50 nM	–	–
Cn1c(CN2CCC(c3ccc(C(=O)N4CCC(CN5CCN(c6ccc(NC7CCC(=O)NC7=O)cc6F)CC5)CC4)cc3)CC2)cc2c(-c3ccc4[nH]ncc4c3)ccnc21 (stereo not shown) [Example 2c1, 3-((4-(4-((1-(4-(1-((4-(1H-indazol-5-yl)-1-methyl-1H-pyrrolo[2,3-b]pyridin-2-yl)methyl)-piperidin-4-yl)benzoyl)piperidin-4-yl)methyl)piperazin-1-yl)-3-fluorophenyl)amino)piperidine-2,6-dione]	70 to 80%	193 nM	–	556 nM
Cn1c(CN2CCC(c3ccc(C(=O)N4CCC(CN5CCC(n6ncc7cc(NC8CCC(=O)NC8=O)ccc76)CC5)CC4)cc3)CC2)cc2c(-c3ccc4[nH]ncc4c3)ccnc21 (stereo not shown) [Example 2t4, 3-((1-(1-((1-(4-(1-((4-(1H-indazol-5-yl)-1-methyl-1H-pyrrolo[2,3-b]pyridin-2-yl)methyl)-piperidin-4-yl)benzoyl)piperidin-4-yl)methyl)piperidin-4-yl)-1H-indazol-5-yl)amino)piperidine-2,6-dione]	< 20%	< 20 nM	–	–

Continued, values first:

Emax [1]	Kd [2]	DC50 [1]	EC50 [3]	Structure (SMILES)
< 20%	< 20 nM	–	–	Cn1c(CN2CCC(c3ccc(C(=O)N4CCC(CN5CCN(C(=O)c6ccc(NC7CCC(=O)NC7=O)cc6F)CC5)CC4)cc3)CC2)cc2c(-c3ccc4[nH]ncc4c3)ccnc21 (stereo not shown) [Example 2e1, 3-((4-(4-((1-(4-(1-((4-(1H-indazol-5-yl)-1-methyl-1H-pyrrolo[2,3-b]pyridin-2-yl)methyl)-piperidin-4-yl)benzoyl)piperidin-4-yl)methyl)piperazine-1-carbonyl)-3-fluorophenyl)amino)piperidine-2,6-dione]
60 to 70%	61.2 nM	–	–	Cn1c(CN2CCC(c3ccc(C(=O)N4CCN(C(=O)CN5CCN(c6ccc(NC7CCC(=O)NC7=O)cc6F)CC5)CC4)cc3)CC2)cc2c(-c3ccc4[nH]ncc4c3)ccnc21 (stereo not shown) [Example 2a2, 3-((4-(4-(2-(4-(4-(1-((4-(1H-indazol-5-yl)-1-methyl-1H-pyrrolo[2,3-b]pyridin-2-yl)methyl)-piperidin-4-yl)benzoyl)piperazin-1-yl)-2-oxoethyl)piperazin-1-yl)-3-fluorophenyl)amino)piperidine-2,6-dione]
–	105 nM	8.1 nM	–	Cn1c(CN2CCC(c3ccc(C(=O)N4CCN(C(=O)CN5CCC(c6ccc(OC7CCC(=O)NC7=O)cc6F)CC5)CC4)cc3)CC2)cc2c(-c3ccc4[nH]ncc4c3)ccnc21 (stereo not shown) [Example 2t1, 3-(4-(1-(2-(4-(4-(1-((4-(1H-indazol-5-yl)-1-methyl-1H-pyrrolo[2,3-b]pyridin-2-yl)methyl)-piperidin-4-yl)benzoyl)piperazin-1-yl)-2-oxoethyl)piperidin-4-yl)-3-fluorophenoxy) piperidine-2,6-dione]
60 to 70%	466 nM	–	–	Cn1c(CN2CCC(c3ccc(C(=O)N4CCC(CN5CCC(c6ccc(NC7CCC(=O)NC7=O)cc6F)CC5)CC4)cc3)CC2)cc2c(-c3ccc4[nH]ncc4c3)ccnc21 (stereo not shown) [Example 2m1, 3-((4-(1-((1-(4-(1-((4-(1H-indazol-5-yl)-1-methyl-1H-pyrrolo[2,3-b]pyridin-2-yl)methyl)-piperidin-4-yl)benzoyl)piperidin-4-yl)methyl)piperidin-4-yl)-3-fluorophenyl)amino)piperidine-2,6-dione]
< 20%	< 20 nM	–	–	Cn1c(CN2CCC(c3ccc(C(=O)N4CCC(CN5CCN(c6ccc(NC7CCC(=O)NC7=O)cc6F)CC5)CC4)cc3)CC2)cc2c(-c3cnc(N)c(F)c3)ccnc21 (stereo not shown) [Example 2c3, 3-((4-(4-((1-(4-(1-((4-(6-amino-5-fluoropyridin-3-yl)-1-methyl-1H-pyrrolo[2,3-b]pyridin-2-yl)-methyl)piperidin-4-yl)benzoyl)piperidin-4-yl)methyl)piperazin-1-yl)-3-fluorophenyl)amino)piperidine-2,6-dione]
